Experimental data taken from patent publication US20230167118A1, “DEGRADATION OF BRUTON'S TYROSINE KINASE (BTK) BY CONJUGATION OF BTK INIDBITORS WITH E3 LIGASE LIGAND AND METHODS OF USE” (BEIGENE, LTD., priority 2020, published 2023).
pIC50: −log10 of the molar value.

Legend:
HEK-293 cells = assay: HEK-293 Cytotoxicity Assay (CellTiter-Glo); assay type: cell-based; conditions: Homo sapiens, HEK293, 72 h incubation, CellTiter-Glo luminescence
Summary of the method: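 HEK-293 cells treated 72 h with 8 concentrations (4-fold dilutions, 0.2% DMSO final). Viability read by CellTiter-Glo luminescence; IC50 from four-parameter logistic fit of % inhibition.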

BTK = target: T1, BTK (Homo sapiens, UniProt Q06187); assay: Cell Degradation: BTK degradation in TMD-8 cells, HTRF assay; assay type: cell-based; conditions: 6 h treatment, IC50 (DC50) of BTK degradation
T1 construct: High control=Cell group with added DMSO and without compound, indicating microplate readings without BTK degradation; endogenous in cells; host or cells: TMD-8 cells
T1 sequence (Q06187 whole entry): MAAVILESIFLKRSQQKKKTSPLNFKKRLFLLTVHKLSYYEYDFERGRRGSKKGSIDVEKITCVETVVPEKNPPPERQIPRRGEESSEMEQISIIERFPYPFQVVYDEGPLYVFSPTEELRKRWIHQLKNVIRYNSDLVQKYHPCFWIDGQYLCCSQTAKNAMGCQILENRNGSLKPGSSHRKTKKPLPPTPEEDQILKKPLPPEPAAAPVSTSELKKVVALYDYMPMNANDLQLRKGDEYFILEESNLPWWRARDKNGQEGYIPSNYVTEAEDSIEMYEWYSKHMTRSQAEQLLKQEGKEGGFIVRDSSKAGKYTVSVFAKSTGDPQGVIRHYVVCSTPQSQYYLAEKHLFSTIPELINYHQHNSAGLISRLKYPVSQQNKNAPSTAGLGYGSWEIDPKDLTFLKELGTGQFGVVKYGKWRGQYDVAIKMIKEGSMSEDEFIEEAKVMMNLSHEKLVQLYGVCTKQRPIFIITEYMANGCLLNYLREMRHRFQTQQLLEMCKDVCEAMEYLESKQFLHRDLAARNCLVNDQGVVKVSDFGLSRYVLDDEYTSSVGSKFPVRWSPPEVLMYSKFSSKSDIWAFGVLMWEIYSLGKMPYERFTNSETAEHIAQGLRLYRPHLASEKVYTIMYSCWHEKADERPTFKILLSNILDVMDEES
Summary of the method: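 TMD-8 cells treated 6 h with 8-dose 6-fold dilutions in 0.2% DMSO, then lysed and BTK quantified by HTRF (665/620 nm). Degradation % normalised to high/low controls; DC50 from four-parameter fit, Dmax as maximal degradation.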

SMILES	pIC50 (HEK-293 cells)	DC50 (BTK)
Cc1cc(-c2ncnc3[nH]c(-c4c(C)nn(C5CCN(CC6CCN(c7ccc(N8CCC(=O)NC8=O)cc7)CC6)C5)c4C)cc23)ccc1[C@@H](C)NC(=O)c1nc(C(C)(C)C)no1 (stereo partly drawn) [Example 163, 3-(tert-butyl)-N-((1R)-1-(4-(6-(1-(1-((1-(4-(2,4-dioxotetrahydropyrimidin-1(2H)-yl)phenyl)piperidin-4-yl)methyl)pyrrolidin-3-yl)-3,5-dimethyl-1H-pyrazol-4-yl)-7H-pyrrolo[2,3-d]pyrimidin-4-yl)-2-methylphenyl)ethyl)-1,2,4-oxadiazole-5-carboxamide]	< 5.00	1.32 nM
Cc1cc(-c2ncnc3[nH]c(-c4ccc(N5CCN(CC6CCN(c7ccc(N8CCC(=O)NC8=O)cc7)CC6)CC5)cc4)cc23)ccc1CNC(=O)c1noc(C(C)(C)C(F)(F)F)n1 [Example 50, N-(4-(6-(4-(4-((1-(4-(2,4-dioxotetrahydropyrimidin-1(2H)-yl)phenyl)piperidin-4-yl)methyl)piperazin-1-yl)phenyl)-7H-pyrrolo[2,3-d]pyrimidin-4-yl)-2-methylbenzyl)-5-(1,1,1-trifluoro-2-methylpropan-2-yl)-1,2,4-oxadiazole-3-carboxamide]	< 5.00	1.1 nM
Cc1cc(-c2ncnc3[nH]c(-c4ccc(C5CC6CCC(C5)N6CC5CCN(c6ccc(N7CCC(=O)NC7=O)cn6)CC5)cc4)cc23)ccc1[C@@H](C)NC(=O)c1nc(C(C)(C)C)no1 (stereo partly drawn) [Example 182, 3-(tert-butyl)-N-((1R)-1-(4-(6-(4-(8-((1-(5-(2,4-dioxotetrahydropyrimidin-1(2H)-yl)pyridin-2-yl)piperidin-4-yl)methyl)-8-azabicyclo[3.2.1]octan-3-yl)phenyl)-7H-pyrrolo[2,3-d]pyrimidin-4-yl)-2-methylphenyl)ethyl)-1,2,4-oxadiazole-5-carboxamide]	5.65	1.34 nM
Cc1cc(-c2ncnc3[nH]c(-c4ccc(N5CCN(CC6CCN(c7cc(F)ccc7N7CCC(=O)NC7=O)CC6)CC5)cc4)cc23)ccc1[C@@H](C)NC(=O)c1nc(C(C)(C)C)no1 [Example 43, (R)-3-(tert-butyl)-N-(1-(4-(6-(4-(4-((1-(2-(2,4-dioxotetrahydropyrimidin-1(2H)-yl)-5-fluorophenyl)piperidin-4-yl)methyl)piperazin-1-yl)phenyl)-7H-pyrrolo[2,3-d]pyrimidin-4-yl)-2-methylphenyl)ethyl)-1,2,4-oxadiazole-5-carboxamide]	< 5.00	> 2000 nM
Cc1cc(-c2ncnc3[nH]c(-c4ccc(C5CCN(CC6CCN(c7ccc8c(c7)CN(C7CCC(=O)NC7=O)C8=O)CC6)CC5)cc4)cc23)ccc1CNC(=O)c1nc(C(C)(C)C)no1 (stereo not drawn) [Example 17, 3-(tert-butyl)-N-(4-(6-(4-(1-((1-(2-(2,6-dioxopiperidin-3-yl)-1-oxoisoindolin-5-yl)piperidin-4-yl)methyl)piperidin-4-yl)phenyl)-7H-pyrrolo[2,3-d]pyrimidin-4-yl)-2-methylbenzyl)-1,2,4-oxadiazole-5-carboxamide]	< 5.00	3.2 nM
Cc1cc(-c2ncnc3[nH]c(-c4ccc(N5CCN(CC6CCN(c7ccc(N8CCC(=O)NC8=O)cc7)CC6)C[C@H]5C)nc4)cc23)ccc1[C@@H](C)NC(=O)c1nc(C(C)(C)C)no1 [Example 105, 3-(tert-butyl)-N-((R)-1-(4-(6-(6-((R)-4-((1-(4-(2,4-dioxotetrahydropyrimidin-1(2H)-yl)phenyl)piperidin-4-yl)methyl)-2-methylpiperazin-1-yl)pyridin-3-yl)-7H-pyrrolo[2,3-d]pyrimidin-4-yl)-2-methylphenyl)ethyl)-1,2,4-oxadiazole-5-carboxamide]	< 5.00	3 nM
Cc1cc(-c2ncnc3[nH]c(-c4ccc(N5CCN(CC6CCN(c7ccc(N8CCC(=O)NC8=O)cc7)CC6)CC5)cc4)cc23)ccc1CNC(=O)c1cnc(C(C)(C)C)s1 [Example 47, 2-(tert-butyl)-N-(4-(6-(4-(4-((1-(4-(2,4-dioxotetrahydropyrimidin-1(2H)-yl)phenyl)piperidin-4-yl)methyl)piperazin-1-yl)phenyl)-7H-pyrrolo[2,3-d]pyrimidin-4-yl)-2-methylbenzyl)thiazole-5-carboxamide]	< 5.00	1.8 nM
Cc1cc(-c2ncnc3[nH]c(-c4ccc(N5CCN(CC6CCN(c7ccc(N8CCC(=O)N(C)C8=O)cc7)CC6)CC5)nc4)cc23)ccc1[C@@H](C)NC(=O)c1nc(C(C)(C)C)no1 [Example 146, (R)-3-(tert-butyl)-N-(1-(2-methyl-4-(6-(6-(4-((1-(4-(3-methyl-2,4-dioxotetrahydropyrimidin-1(2H)-yl)phenyl)piperidin-4-yl)methyl)piperazin-1-yl)pyridin-3-yl)-7H-pyrrolo[2,3-d]pyrimidin-4-yl)phenyl)ethyl)-1,2,4-oxadiazole-5-carboxamide]	< 5.00	> 2000 nM
Cc1cc(-c2ncnc3[nH]c(-c4ccc(N5CCN(CC6CCN(c7ccc(N8CCC(=O)NC8=O)cc7)CC6)C(=O)C5)cc4)cc23)ccc1[C@@H](C)NC(=O)c1nc(C(C)(C)C)no1 [Example 190, (R)-3-(tert-butyl)-N-(1-(4-(6-(4-(4-((1-(4-(2,4-dioxotetrahydropyrimidin-1(2H)-yl)phenyl)piperidin-4-yl)methyl)-3-oxopiperazin-1-yl)phenyl)-7H-pyrrolo[2,3-d]pyrimidin-4-yl)-2-methylphenyl)ethyl)-1,2,4-oxadiazole-5-carboxamide]	< 5.00	0.28 nM
Cc1cc(-c2ncnc3[nH]c(-c4cnc(N5CCN(CC6CCN(c7ccc(N8CCC(=O)NC8=O)cc7)CC6)CC5)nc4)cc23)ccc1[C@@H](C)NC(=O)c1nc(C(C)(C)C)no1 [Example 160, (R)-3-(tert-butyl)-N-(1-(4-(6-(2-(4-((1-(4-(2,4-dioxotetrahydropyrimidin-1(2H)-yl)phenyl)piperidin-4-yl)methyl)piperazin-1-yl)pyrimidin-5-yl)-7H-pyrrolo[2,3-d]pyrimidin-4-yl)-2-methylphenyl)ethyl)-1,2,4-oxadiazole-5-carboxamide]	< 5.00	1.25 nM
Cc1cc(-c2ncnc3[nH]c(-c4ccc(C5CN(CC6CCN(c7ccc(N8CCC(=O)NC8=O)cc7)CC6)C5)cc4)cc23)ccc1[C@@H](C)NC(=O)c1nc(C(C)(C)C)no1 [Example 157, (R)-3-(tert-butyl)-N-(1-(4-(6-(4-(1-((1-(4-(2,4-dioxotetrahydropyrimidin-1(2H)-yl)phenyl)piperidin-4-yl)methyl)azetidin-3-yl)phenyl)-7H-pyrrolo[2,3-d]pyrimidin-4-yl)-2-methylphenyl)ethyl)-1,2,4-oxadiazole-5-carboxamide]	< 5.00	1.04 nM
C=C(C)c1ccc(C(=O)Nc2cc(F)cc(-c3ncnc4[nH]c(-c5ccc(C6CCN(CC7CCN(c8ccc(N9CCC(=O)NC9=O)cc8)CC7)CC6)cc5)cc34)c2C)c(F)c1 [Example 29, N-(3-(6-(4-(1-((1-(4-(2,4-dioxotetrahydropyrimidin-1(2H)-yl)phenyl)piperidin-4-yl)methyl)piperidin-4-yl)phenyl)-7H-pyrrolo[2,3-d]pyrimidin-4-yl)-5-fluoro-2-methylphenyl)-2-fluoro-4-(prop-1-en-2-yl)benzamide]	< 5.00	10.2 nM
